Laboratory results published in patent publication US20210108198A1, “APPLICATION OF COMPOUND OR TRADITIONAL CHINESE MEDICINE EXTRACT IN PREPARATION OF NUCLEIC ACID DELIVERY AGENT AND RELATED PRODUCTS THEREOF” (INSTITUTE OF BASIC MEDICAL SCIENCES CHINESE ACADEMY OF …, priority 2017, published 2021).
“Also recorded” adds a separate entry of the source.

What was measured:
[1] = tested on: MRC-5 cell; assay: RT-qPCR detection of nucleic acid delivered by lipid into MRC-5 cells; assay type: cell-based; settings: RNA 100 nM
Procedure: 3.1 NCI-N87 cell (gastric cancer cell), MRC-5 cell (lung fibroblast), A549 cell (lung cancer cell) were cultured to logarithmic growth phase, and then plated to a six-well plate at cell density of 1×10^6/2 mL medium/well; MRC-5 cell was cultured in Eagle's MEM medium (MEM, Gibco); A549 cell was cultured in Ham's F-12 medium (HyClone); NCI-N87 cell was cultured in RPMI-1640 medium (HyClone); followed by incubation overnight at 37° C., and the follow-up experiments were performed after the cells were attached to the walls.
3.3 After co-incubation with the small RNA for 3 hours, the cells were washed 2-3 times with PBS. The cells were harvested with TRIzol lysis buffer, and the total RNA was extracted. The abundance of small RNA that entered cells was detected by RT-qPCR, and the localization of RNA was detected by fluorescence in situ hybridization; protocols of each detection method were as follows:
3.3.2 RT-qPCR Detection of Small RNA (SYBR Green Dye Method)
The stem-loop primer used in the reverse transcription process was synthesized by Beijing Tsingke Biotechnology Co., Ltd. (U6 RT primer: […] ATG (SEQ ID NO: 21); HJT-sRNA-m7 RT stem-loop primer: […] AA (SEQ ID NO: 22)).
Both the forward and reverse primers of the amplification reaction were designed and synthesized by Beijing Tsingke Biotechnology Co., Ltd. (U6 F Primer: […] (SEQ ID NO: 23), U6 R Primer: […] (SEQ ID NO: 24), HJT-sRNA-m7 F Primer: […] (SEQ ID NO: 25), HJT-sRNA-m7 R Primer: […] (SEQ ID NO: 26)).
3) The relative expression level was calculated by 2-ΔCt method.
3.1.3 After co-incubation with cells for 12-24 hours, the cells were washed twice with PBS. The cells were harvested with TRIzol lysis buffer (purchased from Sigma-Aldrich), and total RNA was extracted.

[2] = tested on: A549 cell; assay: RT-qPCR detection of nucleic acid delivered by lipid into A549 cells; assay type: cell-based, human; settings: RNA 100 nM; for delivery of double-stranded HJT-sRNA-m7 by single lipid (real-time PCR): 12 hours
[3] = tested on: A549 cells; assay: Flow cytometry detection of the efficiency of nucleic acid delivery by lipid; assay type: cell-based, human; settings: PGY-sRNA-6-FAM, boiling method
Procedure: Experimental materials: A549 cells (purchased from the Cell Center of the Chinese Academy of Medical Sciences), FAM-sRNA (purchased from Ribobio Biotechnology Co., Ltd.), lipid No. 41, Accuri® C6 instrument (purchased from BD, USA).
Experimental methods: PGY-sRNA-6-FAM was dissolved in 100 μl water, mixed with 4 μl lipid, and prepared by boiling method. Then the mixture was dropped into A549 cells, and after 6 hours of co-incubation, the samples were collected for detection as follows: firstly wash three times with PBS, then digest with trypsin for 3 minutes and remove trypsin, wash with PBS again and then blow down the cells. The detection was performed using Accuri® C6 instrument.
Experimental Method: PGY-sRNA-6-FAM was dissolved in 100 μl water, and mixed with 4 μl lipid, and prepared into lipid-sRNA mixture by boiling method. Then, the mixture was dropped into A549 cells, and after 6 hours of co-incubation, the samples were collected and washed three times with PBS, then digested with trypsin into single cells, washed with re-suspended with PBS and then blown down for Accuri® C6 instrument detection.
Experimental Method: FAM-sRNA was dissolved in 100 μl water, and mixed with 4 μl lipid, prepared by boiling method. Then, the lipid-sRNA mixture was dropped into A549 cells, and after 6 hours of co-incubation, the samples were collected and washed three times with PBS, then digested into single cells with trypsin, re-suspended with PBS and then blown down for Accuri® C6 instrument detection.

[4] = tested on: A549 cells; assay: Confocal fluorescence microscopy of nucleic acid delivered by lipid in cells; assay type: cell-based, human; settings: 4 μl lipid, boiling method; 6 hours of co-incubation
Procedure: Experimental materials: A549 cells (purchased from the Cell Center of the Chinese Academy of Medical Sciences), PGY-sRNA-6-Cy3 (purchased from Ribobio Biotechnology Co., Ltd.), lipid No. 41, Zeiss LSM780 (purchased from Zeiss, Germany), Alexa Fluor® 488 phalloidin (purchased from Invitrogen, USA), DAPI (purchased from Invitrogen, USA), paraformaldehyde (purchased from sigma, USA).
(§1) Experimental methods: PGY-sRNA-6-FAM was dissolved in 100 μl water, mixed with 4 μl lipid, and prepared by the boiling method. Then the mixture was dropped into A549 cells, and after 6 hours of co-incubation, the samples were washed three times with PBS, fixed with 4% paraformaldehyde, washed three times with PBS, stained with Alexa Fluor® 488 phalloidin for 30 min, washed 3 times with PBS, and stained with DAPI for 5 min, washed with PBS, and then sealed.
as §1, with “method:” for “methods:”, “water, and” for “water,”, “by” for “by the”, “Then,” for “Then”, “PBS washed,” for “washed with PBS,”

[5] = In vivo delivery of single-stranded sRNA by single lipid via gavage (blood, stomach, small intestine, liver); parameters: species or system C57 mice; settings: 10 μl lipid, heating method
From the text: Tissues sampled: live/stomach/small intestine.

[6] = boiling (heating) method, 12 hours (No. 37: 3 hours)
[7] = 4 μl lipid, 6 hours of co-incubation

SMILES: CCCCCCCCCCCCCCCCCCC[C@@H](O)[C@@H](N)CO [No. 41, Sphinganine (d22:0)]
- delivery of double-stranded HJT-sRNA-m7 by single lipid (real-time PCR) ([1]; boiling (heating) method): delivered HJT-sRNA-m7 double-stranded RNA into MRC-5 cells
- delivery of single-stranded HJT-sRNA-m7 by single lipid (real-time PCR) [1, 6]: delivered HJT-sRNA-m7 single-stranded RNA into A549 and MRC-5 cells
- delivery of double-stranded HJT-sRNA-m7 by single lipid (real-time PCR) ([1]; reverse evaporation method): delivered HJT-sRNA-m7 double-stranded RNA into MRC-5 cells; also recorded: significantly higher than that of RNAiMAX
- delivery of double-stranded HJT-sRNA-m7 by single lipid (real-time PCR) ([2]; boiling (heating) method, 2.5 μL single lipid): delivered HJT-sRNA-m7 double-stranded RNA into A549 cells; also recorded: about twice that of RNAiMAX
- delivery of single-stranded HJT-sRNA-m7 by single lipid (real-time PCR) [2, 6]: delivered HJT-sRNA-m7 single-stranded RNA into A549 and MRC-5 cells
- delivery of double-stranded HJT-sRNA-m7 by single lipid (real-time PCR) ([2]; reverse evaporation method): delivered HJT-sRNA-m7 double-stranded RNA into A549 cells; also recorded: significantly higher than that of RNAiMAX
- efficiency in delivering PGY-sRNA-6 double-stranded RNA (flow cytometry) [3, 7]: 96.7%
- efficiency in delivering PGY-sRNA-6 single-stranded RNA (flow cytometry) [3, 7]: 94.1%
- efficiency of nucleic acid delivery by flow cytometry, in words ([3]; 6 hours): could efficiently deliver single-stranded and double-stranded nucleic acids into A549 cells
- entry of PGY-sRNA-6-Cy3 observed under the confocal microscopy [4]: could effectively deliver double-stranded nucleic acid into A549 cells
- entry of single-stranded small RNA into mouse blood (RT-qPCR) ([5]; 1 nmol each sRNA (PGY-sRNA-23/-26/-32), 6 hours or 12 hours after administration): could promote the entry of small RNA into the blood, protecting it from degradation in the blood; also recorded: could effectively deliver sRNA single-stranded nucleic acid into the mouse blood via oral administration to protect sRNA from degradation; also recorded: the delivery effect was better than POPC and Lipofectamine RNAiMAX
- entry of single-stranded small RNA into mouse stomach (RT-qPCR) ([5]; 1 nmol each sRNA, FIG. 109): could promote the entry of small RNA into the stomach cells, protecting it from degradation in the stomach; also recorded: could effectively deliver sRNA single-stranded nucleic acid into the mouse stomach via oral administration to protect sRNA from degradation
- entry of single-stranded small RNA into mouse small intestine (RT-qPCR) ([5]; 1 nmol each sRNA, FIG. 110): could promote the entry of small RNA into small intestinal cells, protecting it from degradation in the small intestine; also recorded: could effectively deliver sRNA single-stranded nucleic acid into the mouse small intestine via oral administration to protect sRNA from degradation
- entry of single-stranded small RNA into mouse liver (RT-qPCR) ([5]; 1 nmol each sRNA, FIG. 111): could promote the entry of small RNA into the liver, protecting it from degradation in the liver; also recorded: could effectively deliver sRNA single-stranded nucleic acid into the mouse liver via oral administration to protect sRNA from degradation
